# Key:
# [1] = molecular target: T1, ATP-dependent translocase ABCB1 (Homo sapiens, UniProt P08183)
# Description: TP_TRANSPORTER: inhibition of Rhodamine 123 efflux in NIH-3T3-G185 cells
# [2] = molecular target: T1, ATP-dependent translocase ABCB1; remark: listed apart in the source
# Description: TP_TRANSPORTER: inhibition of LDS-751 efflux in NIH-3T3-G185 cells
# [3] = molecular target: T1, ATP-dependent translocase ABCB1; remark: listed apart in the source
# Description: TP_TRANSPORTER: inhibition of Daunorubicin efflux in NIH-3T3-G185 cells
# [4] = molecular target: T1, ATP-dependent translocase ABCB1; remark: listed apart in the source
# Description: TP_TRANSPORTER: inhibition of Tetramethylrosamine efflux in NIH-3T3-G185 cells
# [5] = molecular target: T1, ATP-dependent translocase ABCB1; remark: listed apart in the source
# [6] = molecular target: T1, ATP-dependent translocase ABCB1; remark: listed apart in the source
# Description: TP_TRANSPORTER: inhibition of Fluo-3-AM efflux in NIH-3T3-G185 cells
# [7] = molecular target: T1, ATP-dependent translocase ABCB1; remark: listed apart in the source
# Description: TP_TRANSPORTER: inhibition of Calcein-AM efflux in NIH-3T3-G185 cells
# [8] = molecular target: T1, ATP-dependent translocase ABCB1; test: TP_TRANSPORTER: inhibition of Daunorubicin, LDS-751 and Rhodamine 123 efflux in NIH-3T3-G185 cells; type: functional, cell-based; conditions: mouse
# T1 sequence (P08183 whole entry): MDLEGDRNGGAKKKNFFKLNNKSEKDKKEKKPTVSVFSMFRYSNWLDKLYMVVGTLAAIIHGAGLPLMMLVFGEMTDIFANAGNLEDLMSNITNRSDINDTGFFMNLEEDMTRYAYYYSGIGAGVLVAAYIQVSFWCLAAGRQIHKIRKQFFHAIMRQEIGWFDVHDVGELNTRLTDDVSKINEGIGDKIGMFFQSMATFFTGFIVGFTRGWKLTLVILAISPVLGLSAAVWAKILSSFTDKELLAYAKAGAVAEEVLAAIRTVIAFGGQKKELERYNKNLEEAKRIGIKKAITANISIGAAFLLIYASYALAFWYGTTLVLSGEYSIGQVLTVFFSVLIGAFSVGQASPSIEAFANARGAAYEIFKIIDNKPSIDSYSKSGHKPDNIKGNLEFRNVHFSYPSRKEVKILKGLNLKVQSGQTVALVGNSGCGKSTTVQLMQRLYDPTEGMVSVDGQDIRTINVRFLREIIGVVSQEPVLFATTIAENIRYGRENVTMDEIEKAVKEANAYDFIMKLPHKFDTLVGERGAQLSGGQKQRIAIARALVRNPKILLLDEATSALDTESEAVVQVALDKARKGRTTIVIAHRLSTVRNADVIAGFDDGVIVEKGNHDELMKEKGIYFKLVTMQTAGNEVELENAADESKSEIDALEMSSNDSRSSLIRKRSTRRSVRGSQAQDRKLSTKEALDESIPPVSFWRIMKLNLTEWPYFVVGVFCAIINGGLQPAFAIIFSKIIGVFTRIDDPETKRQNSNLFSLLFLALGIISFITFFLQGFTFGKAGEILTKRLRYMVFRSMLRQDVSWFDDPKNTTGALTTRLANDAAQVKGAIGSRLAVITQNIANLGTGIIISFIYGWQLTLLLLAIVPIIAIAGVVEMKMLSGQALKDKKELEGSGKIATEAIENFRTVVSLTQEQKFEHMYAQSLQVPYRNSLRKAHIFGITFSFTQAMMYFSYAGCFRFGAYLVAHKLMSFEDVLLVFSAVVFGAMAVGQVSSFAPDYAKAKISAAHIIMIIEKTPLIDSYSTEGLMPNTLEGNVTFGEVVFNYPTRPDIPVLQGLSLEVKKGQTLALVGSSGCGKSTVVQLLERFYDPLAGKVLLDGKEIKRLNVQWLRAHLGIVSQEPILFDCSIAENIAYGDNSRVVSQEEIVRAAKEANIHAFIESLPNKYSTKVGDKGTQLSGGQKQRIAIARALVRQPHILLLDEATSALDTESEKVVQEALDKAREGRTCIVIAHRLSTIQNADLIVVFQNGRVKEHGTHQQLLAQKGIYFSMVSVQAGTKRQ
Structure (SMILES),IC50 [1],IC50 [2],IC50 [3],IC50 [4],IC50 [5],IC50 [6],IC50 [7],Activity [8]
COc1ccccc1OCCNCC(O)COc1cccc2[nH]c3ccccc3c12 (stereo unspecified) [CARVEDILOL],6.6 µM,6 µM,4.6 µM,–,–,–,–,–
CC[C@H]1OC(=O)[C@H](C)[C@@H](O[C@H]2C[C@@](C)(OC)[C@@H](O)[C@H](C)O2)[C@H](C)[C@@H](O[C@@H]2O[C@H](C)C[C@H](N(C)C)[C@H]2O)[C@](C)(OC)C[C@@H](C)C(=O)[C@H](C)[C@@H](O)[C@]1(C)O [CLARITHROMYCIN],15.1 µM,7.2 µM,3.8 µM,23.8 µM,50.2 µM,86.7 µM,56.1 µM,–
CC(C)/N=c1\cc2n(-c3ccc(Cl)cc3)c3ccccc3nc-2cc1Nc1ccc(Cl)cc1 [CLOFAZIMINE],1 µM,1.1 µM,0.6 µM,–,–,–,–,–
C=C[C@@]1(C)CC(=O)[C@]2(O)[C@@]3(C)[C@@H](O)CCC(C)(C)[C@@H]3[C@H](O)[C@H](OC(C)=O)[C@@]2(C)O1 [COLFORSIN],–,188 µM,80.2 µM,–,–,–,–,–
CC[C@H]1CN2CCc3cc(OC)c(OC)cc3[C@@H]2C[C@@H]1C[C@H]1NCCc2cc(OC)c(OC)cc21 [EMETINE],9.6 µM,2.4 µM,9.2 µM,207 µM,116 µM,130 µM,35.1 µM,–
OCCN1CCN(CCCN2c3ccccc3Sc3ccc(C(F)(F)F)cc32)CC1 [FLUPHENAZINE],10.4 µM,5.7 µM,6.5 µM,–,–,–,–,–
COc1ccc2c(c1)c(CC(=O)O)c(C)n2C(=O)c1ccc(Cl)cc1 [INDOMETHACIN],–,–,–,–,–,–,–,is not an inhibitor [-]
COc1ccc(CCNCCCC(C#N)(c2cc(OC)c(OC)c(OC)c2)C(C)C)cc1OC (stereo unspecified) [N-Norgallopamil],8.6 µM,4.9 µM,3.6 µM,–,–,–,–,–
CC(=O)O[C@H]1C(=O)[C@@]2(C)[C@H]([C@H](OC(=O)c3ccccc3)[C@]3(O)C[C@H](OC(=O)[C@H](O)[C@@H](NC(=O)c4ccccc4)c4ccccc4)C(C)=C1C3(C)C)[C@]1(OC(C)=O)CO[C@@H]1C[C@@H]2O [PACLITAXEL],70.2 µM,53.9 µM,54 µM,–,–,–,–,–
COC(=O)[C@H]1[C@H]2C[C@@H]3c4[nH]c5cc(OC)ccc5c4CCN3C[C@H]2C[C@@H](OC(=O)c2cc(OC)c(OC)c(OC)c2)[C@@H]1OC [RESERPINE],3.9 µM,2.1 µM,0.5 µM,5.3 µM,6.1 µM,2.1 µM,2.6 µM,–
c1ccc([P+](c2ccccc2)(c2ccccc2)c2ccccc2)cc1 [TETRAPHENYLPHOSPHONIUM],–,427 µM,490 µM,–,–,–,–,–

# — ChEMBL document CHEMBL2074145, “Active transport of fluorescent P-glycoprotein substrates: evaluation as markers and interaction with inhibitors” (Biochem Biophys Res Commun, 2001)
